According to patent US8192962B2, “Processes for detecting toxic substances” (Daikin Industries, Ltd., priority 2001, dated 2012):

Tested on: Genes belonging to other category
Test: DNA chip mRNA expression in yeast, genes belonging to other category (Table 9)
Type: cell-based, Saccharomyces cerevisiae S288C
Experimental: Yeast (Saccharomyces cerevisiae S288C (α SUC2mal mel gap2 CUP1)) were incubated at 25° C. on YPD medium (yeast extract 1%, polypepton 2%, glucose 2%). One of toxic chemical substances was added to the cells at logarithmic growth phase, and the cells were further incubated for two hours. Cells were cultured without any chemical substance in the same condition, and were used as control. Concentrations of the chemical substances were defined to inhibit the growth of the yeast but not lead to death.
After completion of the incubation, the culture was centrifuged to collect the cells. To the cells, sodium acetate buffer (50 mM sodium acetate, 10 mM EDTA, 1% SDS) was added, and the mixture was shaken at 65° C. for five minutes, followed by returning to room temperature, and obtaining the supernatant, of which the procedures were repeated two times. To the supernatant, ½ amount of a solution of phenol/chloroform was added, and the mixture was centrifuged to give a supernatant, which was added with an equal amount of chloroform, and the mixture was centrifuged to give a supernatant. To the supernatant, an equal amount of isopropanol containing 0.3 M sodium acetate was added, and the mixture was allowed to stand at room temperature for 30 minutes, after which the mixture was centrifuged to give a sediment of the whole RNAs. Seventy % ethanol was added to the sediment, and the mixture was again centrifuged to give a sediment, which was then dried and dissolved in water. mRNA was isolated from the whole RNAs as followings. In view of the fact that a poly A chain is attached to the 3′ terminus of mRNA, a polynucleotide having a poly T structure which was immobilized on the surface of latex beads was used to trap the mRNA, and then the mRNA was washed and eluted with spine column (Oligotex-dT30<Super>mRNA Purification Kit, Takara). Reverse transcription of the mRNA was conducted with a reverse transcriptase (Super Script II Reverse Transcriptase; catalogue No. 18064-014, GibcoBRL) using fluorescence-labeled nucleotides to give cDNAs that were introduced with Cy3-dUTP or Cy5-dUTP during the reverse transcription.
The labeled cDNAs were dissolved in TE buffer (10mM Tris-HCl/1 mM EDTA, pH8.0), and the solution was dropped on the DNA chip containing the whole genes of yeast (DNA Chip Research Inc. Japan) so that the cDNAs were hybridized on the DNA chip at 65° C. for over 12 hours. The fluoresces intensity of the DNA chip was read with a scanner, and the ratio relative to the fluorescence intensity resulting from the absence of chemical substance was estimated as the following, which is shown in Tables 1 to 9: […]

Oc1cc(Cl)c(Cl)cc1Cl [(6), 2,4,5-trichlorophenol]
The level of expressed mRNA in the presence of chemical substance/The level of expressed mRNA in the absence of chemical substance (yeast gene YJL210W): 0.6
The level of expressed mRNA in the presence of chemical substance/The level of expressed mRNA in the absence of chemical substance (yeast gene YJR004C): 1.2
The level of expressed mRNA in the presence of chemical substance/The level of expressed mRNA in the absence of chemical substance (yeast gene YJR050W): 1.4
The level of expressed mRNA in the presence of chemical substance/The level of expressed mRNA in the absence of chemical substance (yeast gene YJR086W): 1.9
The level of expressed mRNA in the presence of chemical substance/The level of expressed mRNA in the absence of chemical substance (yeast gene YJR091C): 0.8
The level of expressed mRNA in the presence of chemical substance/The level of expressed mRNA in the absence of chemical substance (yeast gene YJR110W): 0.9
The level of expressed mRNA in the presence of chemical substance/The level of expressed mRNA in the absence of chemical substance (yeast gene YJR117W): 1.3
The level of expressed mRNA in the presence of chemical substance/The level of expressed mRNA in the absence of chemical substance (yeast gene YJR119C): 1.4
The level of expressed mRNA in the presence of chemical substance/The level of expressed mRNA in the absence of chemical substance (yeast gene YJR145C): 0.4
The level of expressed mRNA in the presence of chemical substance/The level of expressed mRNA in the absence of chemical substance (yeast gene YKL008C): 3.8
The level of expressed mRNA in the presence of chemical substance/The level of expressed mRNA in the absence of chemical substance (yeast gene YKL013C): 1.9
The level of expressed mRNA in the presence of chemical substance/The level of expressed mRNA in the absence of chemical substance (yeast gene YKL025C): 0.9
The level of expressed mRNA in the presence of chemical substance/The level of expressed mRNA in the absence of chemical substance (yeast gene YKL039W): 4.9
The level of expressed mRNA in the presence of chemical substance/The level of expressed mRNA in the absence of chemical substance (yeast gene YKL041W): 2.2
The level of expressed mRNA in the presence of chemical substance/The level of expressed mRNA in the absence of chemical substance (yeast gene YKL079W): 0.8
The level of expressed mRNA in the presence of chemical substance/The level of expressed mRNA in the absence of chemical substance (yeast gene YKL096W): 0.6
The level of expressed mRNA in the presence of chemical substance/The level of expressed mRNA in the absence of chemical substance (yeast gene YKL139W): 3.5
The level of expressed mRNA in the presence of chemical substance/The level of expressed mRNA in the absence of chemical substance (yeast gene YKL165C): 0.6
The level of expressed mRNA in the presence of chemical substance/The level of expressed mRNA in the absence of chemical substance (yeast gene YKL193C): 0.9
The level of expressed mRNA in the presence of chemical substance/The level of expressed mRNA in the absence of chemical substance (yeast gene YKL196C): 0.9
The level of expressed mRNA in the presence of chemical substance/The level of expressed mRNA in the absence of chemical substance (yeast gene YKR014C): 2.1
The level of expressed mRNA in the presence of chemical substance/The level of expressed mRNA in the absence of chemical substance (yeast gene YKR098C): 1.8
The level of expressed mRNA in the presence of chemical substance/The level of expressed mRNA in the absence of chemical substance (yeast gene YLR120C): 1.9
The level of expressed mRNA in the presence of chemical substance/The level of expressed mRNA in the absence of chemical substance (yeast gene YLR136C): 1.7
The level of expressed mRNA in the presence of chemical substance/The level of expressed mRNA in the absence of chemical substance (yeast gene YLR144C): 0.9
The level of expressed mRNA in the presence of chemical substance/The level of expressed mRNA in the absence of chemical substance (yeast gene YLR178C): 4.2
The level of expressed mRNA in the presence of chemical substance/The level of expressed mRNA in the absence of chemical substance (yeast gene YLR206W): 0.5
The level of expressed mRNA in the presence of chemical substance/The level of expressed mRNA in the absence of chemical substance (yeast gene YLR250W): 1.1
The level of expressed mRNA in the presence of chemical substance/The level of expressed mRNA in the absence of chemical substance (yeast gene YLR266C): 1.0
The level of expressed mRNA in the presence of chemical substance/The level of expressed mRNA in the absence of chemical substance (yeast gene YLR327C): 5.1
The level of expressed mRNA in the presence of chemical substance/The level of expressed mRNA in the absence of chemical substance (yeast gene YLR356W): 3.4
The level of expressed mRNA in the presence of chemical substance/The level of expressed mRNA in the absence of chemical substance (yeast gene YLR360W): 1.4
The level of expressed mRNA in the presence of chemical substance/The level of expressed mRNA in the absence of chemical substance (yeast gene YLR362W): 0.8
The level of expressed mRNA in the presence of chemical substance/The level of expressed mRNA in the absence of chemical substance (yeast gene YLR389C): 0.2
The level of expressed mRNA in the presence of chemical substance/The level of expressed mRNA in the absence of chemical substance (yeast gene YLR391W): 1.5
The level of expressed mRNA in the presence of chemical substance/The level of expressed mRNA in the absence of chemical substance (yeast gene YLR429W): 0.8
The level of expressed mRNA in the presence of chemical substance/The level of expressed mRNA in the absence of chemical substance (yeast gene YMR004W): 0.5
The level of expressed mRNA in the presence of chemical substance/The level of expressed mRNA in the absence of chemical substance (yeast gene YMR094W): 0.5
The level of expressed mRNA in the presence of chemical substance/The level of expressed mRNA in the absence of chemical substance (yeast gene YMR101C): 0.4
The level of expressed mRNA in the presence of chemical substance/The level of expressed mRNA in the absence of chemical substance (yeast gene YMR104C): 1.9
The level of expressed mRNA in the presence of chemical substance/The level of expressed mRNA in the absence of chemical substance (yeast gene YMR219W): 0.8
The level of expressed mRNA in the presence of chemical substance/The level of expressed mRNA in the absence of chemical substance (yeast gene YMR226C): 2.6
